# According to paper PMC8273887 (Journal of Medicinal Chemistry, 2021):
# Key:
# [1] = target: T1, CXCR4 (Homo sapiens, UniProt P61073); assay: Inositol 1 phosphate (IP1) accumulation assay (HTRF) in COS-7 cells transfected with CXCR4; format: cell-based; conditions: COS-7 transiently co-transfected with CXCR4-eYFP and chimeric GαΔ6qi4myr; 10^-12 to 10^-5 M, 1 h, 37 °C; HTRF; n ≥ 2
# T1 construct: expressed in transfected cells; host or cells: COS-7 (African green monkey), transient co-transfection with GαΔ6qi4myr
# T1 sequence (P61073 whole entry): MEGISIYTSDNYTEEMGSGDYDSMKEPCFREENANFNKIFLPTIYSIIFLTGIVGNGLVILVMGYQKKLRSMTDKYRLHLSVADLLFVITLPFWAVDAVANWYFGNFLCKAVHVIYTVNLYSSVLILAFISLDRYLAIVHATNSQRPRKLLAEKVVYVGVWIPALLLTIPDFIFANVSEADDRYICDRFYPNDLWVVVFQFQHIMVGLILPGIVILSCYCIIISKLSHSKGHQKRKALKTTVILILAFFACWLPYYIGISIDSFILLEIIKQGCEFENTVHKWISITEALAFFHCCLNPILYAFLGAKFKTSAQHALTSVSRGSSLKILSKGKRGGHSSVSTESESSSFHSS
# How it was run: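 COS-7 cells transiently co-transfected with CXCR4-eYFP and chimeric GαΔ6qi4myr were stimulated 1 h at 37 °C in HBSS with 20 mM LiCl; final ligand 10^–12 to 10^–5 M CXCL12, 1 or 10 μM TFF3 forms. IP1 measured by competitive HTRF (665/620 ratio), normalized to CXCL12 response.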
# [2] = system: human erythrocytes; assay: Hemolysis analysis; format: cell-based; conditions: 1 h, 37 °C, absorbance 405 nm, 0.2–25 μM final concentration, two independent experiments
# Text: Considering the therapeutic potential of TFF3, it was important to determine any cytotoxic and hemolytic effects early on to avoid problems in later stages of drug development. We therefore assessed cytotoxicity on HEK-293 cells and hemolytic effects in human erythrocytes. We treated the cells with TFF3(C^57Acm) and TFF3 homodimer and used resazurin, a blue dye that produces strong fluorescence when reduced by living cells, as the readout of the number of viable cells.[60] In the hemolytic assay, we evaluated hemoglobin release, an indicator of erythrocyte lysis, upon exposure to the peptides.
# Monomeric and homodimeric TFF3 were serially diluted twofold in 0.9% NaCl and seeded (25 μL) in a 384-well polypropylene plate (0.2–25 μM final concentration). […] The cells were counted using a Neubauer hemocytometer and then diluted to 1 × 10^8/mL in 0.9% NaCl. […] Following incubation, the plates were centrifuged at 1000g for 10 min to pellet cells and debris and then 25 μL of the supernatant was transferred into a 384-well flat-bottom PS plate and absorbance (Abs) was read at 405 nm using a Tecan M1000 Pro monochromator plate reader. Percent hemolysis was calculated using the following equation: Hemolysis (%) = (Abssample – Absnegative/Abspositive – Absnegative) × 100. […]
compound,measurement,setting,value
CC[C@H](C)[C@@H]1NC(=O)[C@H](CCCNC(=N)N)NC(=O)[C@H](CO)NC(=O)[C@H](CC(=O)O)NC(=O)[C@H](Cc2ccccc2)NC(=O)[C@@H]2CSSC[C@H](NC(=O)[C@H](CCC(N)=O)NC(=O)[C@H](CC(N)=O)NC(=O)[C@H](C)NC(=O)[C@H](CO)NC(=O)[C@H](CC(C)C)NC(=O)CNC(=O)[C@@H](NC(=O)[C@H](Cc3ccc(O)cc3)NC(=O)[C@H](CCC(=O)O)NC(=O)[C@@H](N)CCC(=O)O)C(C)C)C(=O)N[C@@H](C)C(=O)N[C@@H](C(C)C)C(=O)N3CCC[C@H]3C(=O)N[C@@H](C)C(=O)N[C@@H](CCCCN)C(=O)N[C@@H](CC(=O)O)C(=O)N[C@@H](CCCNC(=N)N)C(=O)N[C@@H](C(C)C)C(=O)N[C@@H](CC(=O)O)C(=O)N[C@H]3CSSC[C@H](NC(=O)CNC(=O)[C@H](CCCNC(=N)N)NC(=O)[C@H](CC(N)=O)NC(=O)[C@H](CC(N)=O)NC(=O)[C@H](CSSC[C@@H](C(=O)N[C@@H](Cc4ccccc4)C(=O)N[C@@H](CCCCN)C(=O)N4CCC[C@H]4C(=O)N[C@@H](CC(C)C)C(=O)N[C@@H](CCC(N)=O)C(=O)N[C@@H](CCC(=O)O)C(=O)N[C@@H](C)C(=O)N[C@@H](CCC(=O)O)C(=O)N[C@@H](CSCNC(C)=O)C(=O)N[C@H](C(=O)N[C@@H](Cc4ccccc4)C(=O)O)[C@@H](C)O)NC(=O)[C@H](Cc4c[nH]c5ccccc45)NC(=O)[C@@H]4CCCN4C(=O)[C@H](C(C)C)NC(=O)CNC(=O)[C@@H]4CCCN4C1=O)NC(=O)[C@H](CCC(=O)O)NC(=O)[C@H](CCCCN)NC(=O)[C@@H]1CCCN1C(=O)[C@H]([C@@H](C)O)NC(=O)[C@H](C(C)C)NC(=O)[C@H](Cc1c[nH]cn1)NC(=O)[C@@H]1CCCN1C(=O)[C@H](Cc1ccc(O)cc1)NC(=O)CNC3=O)C(=O)N2 [TFF3(C^57Acm)],"concentration up to which CXCR4 was not activated (agonism, IP1 accumulation)",[1],> 10 µM
same,concentration up to which no hemolytic effect was displayed,[2],> 25 µM
